Experimental data from patent US20220226319A1, “TALTIRELIN USE” (EOLAS RESEARCH LIMITED, priority 2019, published 2022).
Entries after “also recorded” stand apart in the source; their conditions may differ.

Experiments:
Assay type in all cases: cell-based
[1] = system: NFE2L2 gene expression in fibroblasts; assay: NFE2L2 gene expression in fibroblasts; conditions: older cells (passage 20), FIG. 2
Excerpt: (§1) FIG. 2 illustrates the increased expression of EFNB1, NFE2L2, SERPINE1 and SIRT1 genes in fibroblasts that occurs by administration of taltirelin.

[2] = system: FOXO3 gene expression in fibroblasts; assay: FOXO3 gene expression in fibroblasts; conditions: older cells (passage 20), P<0.01, FIG. 1
Excerpt: (§2) Experiments have shown that taltirelin modulates the gene expression in fibroblasts of a variety of genes involved in processes underlying ageing.
(§3) FIG. 1 illustrates the increased expression of FOXO1 and FOXO3 genes that occurs in fibroblasts by administration of taltirelin. From the results, it can be seen that the administration of taltirelin in older cells (passage 20) led to a large increase in the expression of FOXO1 (>5×) and FOXO3 (>1.5×) compared to untreated controls. The results were statistically significant with P<0.01.

[3] = system: SERPINE1 gene expression in fibroblasts; assay: SERPINE1 gene expression in fibroblasts; conditions: older cells (passage 20), FIG. 2
Excerpt: as §1

[4] = system: EFNB1 gene expression in fibroblasts; assay: EFNB1 gene expression in fibroblasts; conditions: older cells (passage 20), FIG. 2
Excerpt: as §1

[5] = system: SIRT1 gene expression in fibroblasts; assay: SIRT1 gene expression in fibroblasts; conditions: older cells (passage 20), FIG. 2
Excerpt: as §1

[6] = system: FOXO1 gene expression in fibroblasts; assay: FOXO1 gene expression in fibroblasts; conditions: older cells (passage 20), P<0.01, FIG. 1
Excerpt: as §2, §3

## CN1C(=O)C[C@@H](C(=O)N[C@@H](Cc2cnc[nH]2)C(=O)N2CCC[C@H]2C(N)=O)NC1=O [taltirelin, N-[[(4S)-Hexahydro-1-methyl-2,6-dioxo-4-pyrimidinyl]carbonyl]-L-histidyl-L-prolinamide]
[1]
  expression of NFE2L2 gene compared to untreated controls: statistically significant (P<0.01) increase; also recorded: significantly increased
[2]
  increase in the expression of FOXO3 compared to untreated controls: > 1.5 ×
[3]
  expression of SERPINE1 gene compared to untreated controls: statistically significant (P<0.01) decrease; also recorded: significantly inhibited
[4]
  expression of EFNB1 gene compared to untreated controls: statistically significant (P<0.01) increase; also recorded: significantly increased
[5]
  expression of SIRT1 gene compared to untreated controls: statistically significant (P<0.01) increase; also recorded: increased significantly
[6]
  increase in the expression of FOXO1 compared to untreated controls: > 5 ×
